{
  "source": "patent US8552059B2",
  "about": "“Treatment of ischemic episodes and cerebroprotection through misoprostol” (The Board of Trustees of the Leland Stanford Junior …, priority 2009, dated 2013)",
  "test_system": "murine middle cerebral artery occlusion-reperfusion (MCAO-RP) model of transient focal ischemia",
  "assay": "Middle cerebral artery occlusion-reperfusion (MCAO-RP), 90 min MCAO, misoprostol",
  "assay_type": "in vivo, mouse",
  "conditions": "p<0.05",
  "method": "Focal cerebral ischemia was induced by 90 minutes of reversible right middle cerebral artery occlusion (MCAO) under isofluorane anesthesia followed by 22.5 hours or 72 hours of reperfusion and terminal histopathology, as previously described (McCullough et al., 2004). […] Mice were given 3 subcutaneous injections of either vehicle (hydroxypropyl-methyl cellulose; HPMC) or 1 mg/kg misoprostol in HPMC (1:100 misoprostol:HPMC; Pfizer, Groton, Conn.) (Best et al., 1995) either at onset of MCAO or 2 hours after MCAO, followed by two subsequent doses 6 and 12 hours later. In the first experiment, misoprostol was given at onset of MCAO, with the two subsequent injections given at 6 hours and at 12 hours post MCAO, and brains were analyzed 22.5 hours later. In the second experiment, treatment with the initial dose of misoprostol was delayed two hours after the onset of MCAO, and two subsequent doses were then administered at 8 hours and 14 hours after MCAO and brains were analyzed at 22.5 hours later. In the third experiment, a delayed time point was tested, and misoprostol was given 2 hours after MCAO and again at 6 and 12 hours; brains were examined at 72 hours. […] A fifth cohort of EP3−/− and +/+ mice underwent treatment with either vehicle or misoprostol at MCAO, with subsequent administration of misoprostol or vehicle at 6 and 12 hours post MCAO and brain examination 22.5 hours later.",
  "data": [
    {"smiles": "CCCCC(C)(O)C/C=C/[C@H]1[C@H](O)CC(=O)[C@@H]1CCCCCCC(=O)OC", "note": "(mixture of isomers) [misoprostol]", "values": [
      {"measurement": "Neurological scores", "setting": "1 mg/kg s.c. 2 h after MCAO, again at 6 and 12 h, 72 h, comparison value 2.6+/−0.24", "value": "1.0+/−0.22"},
      {"measurement": "Neurological scores", "setting": "1 mg/kg s.c. 2 h after MCAO, then at 8 and 14 h, 24 h, comparison value 2.6+/−0.3", "value": "1.7+/−0.3"},
      {"measurement": "Neurological scores", "setting": "1 mg/kg s.c. at onset of 90 min MCAO, then at 6 and 12 h, 24 h, comparison value 2.4+/−0.2", "value": "1.8+/−0.2"}
    ]}
  ]
}
